Columns and labels:
Interleukin-1 = experiment: Blood levels of interleukin-1 in endotoxin-treated mice (ELISA); assay type: in vivo, male Charles-Dawley mice; details: mice given endotoxin and test compound, endotoxin alone 58.3, vehicle without endotoxin 29.2
Procedure: Normal 7 week old male Charles-Dawley mice were utilized in the assay. The mice were injected with vehicle and a baseline blood level of IL-1 was established by an IL-1 specific ELISA ninety (90) minutes after administration. The animals were then administered both endotoxin and vehicle and a blood level of IL-1 was determined. Finally the animals were administered endotoxin and the test compound and the effect upon IL-1 blood levels was determined.

ENDOTOXIN TREATED RATS = experiment: Animal model of septic shock: survival of endotoxin treated rats; assay type: in vivo, Male Sprague Dawley rats; details: 72 hours after endotoxin
Procedure: In this test rats were injected with endotoxin and a control survival rate was determined. Other groups of rats were pretreated with one of the compounds of Formula I at varied dosages and then administered endotoxin and the survival rates were compared. This test was conducted in the following manner. Male Sprague Dawley rats were utilized (weight 215g-300g) in each test group. Endotoxin (30mg/kg) was administered intraperitoneally (IP). A test compound or vehicle was administered IP 30 minutes prior to endotoxin administration. The following results were obtained: TABLE III

[1] = system: INTERLEUKIN-1 RELEASE BY HUMAN MACROPHAGES; experiment: Inhibition of interleukin-1 release by endotoxin-stimulated human macrophages (ELISA); assay type: cell-based; details: Macrophage, two million macrophages stimulated with 20 nanograms endotoxin for 24 hours, IL-1 in supernatant
Source text: These include arthritis, psoriasis, athersclerosis, and diabetes. […] One such in-vitro assay is based upon the fact that when human macrophages are exposed to endotoxin, the macrophages secrete IL-1.
The in-vitro studies of IL-1 production was facilitated by a specific property of macrophages, i. e. attachment to non-self, e.g. plastic surface. In this assay, human peripheral blood monocyte-derived macrophages were enriched by plastic adherence. Two million of these macrophages were stimulated with 20 nanograms of endotoxin for 24 hours. Culture supernatants were then collected and the levels of IL-1 were assayed by enzyme-linked immuno-sorbent assay (ELISA). The same assay was repeated except that it was done in the presence of the test compound. The assay was repeated until an IC50 was calculated.

gerbils [2] = experiment: Gerbil model of stroke (cerebral ischemia/reperfusion); assay type: in vivo; details: for locomotor activity of ischemic gerbils: pretreated 30 minutes prior to ischemic event, Figure III; for protective effect in gerbil model: 32 mg/kg, Figure V
Source text: One of the primary therapeutic uses of pharmaceutical compositions containing these compounds will be in the treatment of stroke. Strokes are associated with cerebral ischemia. Initially, it was thought that the CNS damage that often accompanies a stroke was a direct result of the tissues being deprived of oxygen. Recent research has shown that most of the damage occurs when the tissues are reoxygenated during reperfusion. […] Gastroenterology, 82, 9-15 (1982). Oliver et al has shown that a significant amount of this damage occurs due to free oxygen radicals and the oxidation sequence which they initiate, Proc. Natl. Acad. Sci. USA, vol. 87, pp 5144-5147 July 1990. […] In this model the carotid arteries of gerbils are constricted surgically and after a predetermined period, the constriction is removed so that surrounding tissues may be reperfused. CNS damage, which occurs upon reperfusion, can be measured by the level of protein oxidation that occurs in the brain or by examining the gerbil's behavior. […] Oliver et al and Phillis et al have also shown similar results with PBN, supra and Neuroscience Letter, 116 (1990) 315-319.
The compound, 3,4-dihydro-3,3-dimethylisoquinoline N-oxide which was the product of Example I (hereinafter compound) was tested in a gerbil model as described above. The exact procedure utilized is described by Chandler et al. in Journal of Pharmacological Methods Vol. 14, pages 137-146 (1985). Figures I-V summarize the results that were obtained.
Figure I depicts the effect the compound had on the motor activity of non-ischemic gerbils.
Figure II depicts the effects that ischemia has upon the gerbils locomotor activity.
The gerbils were pretreated with the compound 30 minutes prior to initiation of the ischemic event.
Figure IV compares the neuronal loss of ischemic gerbils receiving various doses of compound with both control gerbils and non-ischemic gerbils.
All compounds were administered at 32 mg/kg. […] Compound A represents the product of Example I, F = Example III, and G = Example II.

[3] = Inhibition of oxidation of soy PC liposome initiated with hydrogen peroxide and Fe2+ (thiobarbituric acid readout); assay type: biochemical; details: amount required to inhibit 100% of oxidation of soy liposome over 15 minutes; 50uM H2O2, 50uM Fe2+, 37°C, pH 7.0
Source text: One such assay is based upon the fact that the lipid, soybean phosphatidylcholine, readily undergoes oxidation. This oxidation may be initiated by a variety of oxidizing agents such as Fe^2+ and H2O2, or 2,2'-azobis-(2-amidinopropane). A spin trapping agent will decrease the rate at which the lipid undergoes oxidation in this assay. This assay is described in detail in: a) Nilsson, U.A., Olsson, L-I, Carlin, G. and Bylund-Fellenius, A-C. (1989) Inhibition of lipid peroxidation by spin labels. Relationships between structure and function. J. Biol. Chem. 264:11131-11135; and b) Aust, S.D. (1985). Lipid peroxidation. In Handbook of Methods for Oxygen Radical Research. (Greenwald, R.A., ed.) CRC Press, Inc. Boca Raton, Florida, pp. 203-207.
Soybean phosphatidylcholine (PC) was obtained from commercial suppliers such as Sigma or Avanti Polar Lipids. The soy PC was dissolved in ethanol achieving a final concentration of 0.563mM. […]
The ability of a compound to inhibit oxidation of the soy PC liposome was evaluated in the following manner. […]
The samples were heated at 100°C for 20 minutes, cooled and centrifuged. The absorbance of the resulting supernatant was determined at 532-580nm. Quantitation of the thiobarbituric acid/oxidized PC complex was determined by comparison to a standard curve of malondialdehyde equivalents generated by acid catalysed hydrolysis of 1,1,3,3-tetraethoxypropane. […]

[4] = Inhibition of oxidation of soy PC liposome by Fe2+/histidine-Fe3+ (thiobarbituric acid readout); assay type: biochemical; details: histidine/Fe3+ 250:50uM, initiated with 50 uM Fe2+; 15 minutes, 37°C
gerbils [5] = details: literature (Floyd; Oliver et al; Phillis et al); versus control animals; cited from earlier work
[6] = system: animal models of circulatory shock; details: literature (Hamburger & McCay; Novelli et al.); cited from earlier work
myocardial tissues = details: literature (Bolli et al); cited from earlier work
[7] = dose 3 mg/kg IP 30 minutes prior to endotoxin (30mg/kg IP)
[8] = dose 10 mg/kg IP 30 minutes prior to endotoxin (30mg/kg IP)
[9] = dose 30 mg/kg IP 30 minutes prior to endotoxin (30mg/kg IP)

CC1(C)Cc2ccccc2C=[N+]1[O-] [Example I, 3,4-Dihydro-3,3-dimethylisoquinoline N-oxide]
IL-1 (picrogram/ml-serum) (Interleukin-1): 6.4 picrogram/ml-serum | % Surviving (ENDOTOXIN TREATED RATS; [7]): 33% | Survival Rate (ENDOTOXIN TREATED RATS; [7]): 4/12 | % Surviving (ENDOTOXIN TREATED RATS; [8]): 58% | Survival Rate (ENDOTOXIN TREATED RATS; [8]): 7/12 | % Surviving (ENDOTOXIN TREATED RATS; [9]): 83% | Survival Rate (ENDOTOXIN TREATED RATS; [9]): 10/12 | IC50 [1]: 330 µM | locomotor activity of ischemic gerbils (gerbils [2]; 30mg/kg): significantly decreased | protective effect in gerbil model (gerbils [2]): protective effect | locomotor activity of ischemic gerbils (gerbils [2]; 100mg/kg): significantly decreased | locomotor activity of non-ischemic gerbils (gerbils [2]; non-ischemic gerbils, Figure I): no effect | neuronal loss of ischemic gerbils (gerbils [2]; various doses, versus control and non-ischemic gerbils, Figure IV): saved significant amounts of neuronal tissue

[O-][N+]1=Cc2ccccc2CC12CCCCC2 [Example II, Sprio [cyclohexane-1,3']-3,4-dihydroisoquinoline-N-oxide]
IL-1 (picrogram/ml-serum) (Interleukin-1): 4.7 picrogram/ml-serum | IC100 Required to prevent Oxidation of Soybean Phosphatidylcholne by Fe^+2/H202 [3]: 0.1 mM | IC100 Required to prevent Oxidation of Soybean Phosphatidylcholne by Fe^+2/histidine-Fe^3+ [4]: 0.3 mM | % Surviving (ENDOTOXIN TREATED RATS; [7]): 30% | Survival Rate (ENDOTOXIN TREATED RATS; [7]): 3/10 | % Surviving (ENDOTOXIN TREATED RATS; [8]): 91% | Survival Rate (ENDOTOXIN TREATED RATS; [8]): 19/23 | IC50 [1]: 200 µM | protective effect in gerbil model (gerbils [2]): protective effect

[O-][N+]1=Cc2ccccc2CC12CCCC2 [Example III, Spiro [cyclopentane-1,3']-[1H]dihydroisoquinoline 2-oxide]
IL-1 (picrogram/ml-serum) (Interleukin-1): 10.2 picrogram/ml-serum | IC100 Required to prevent Oxidation of Soybean Phosphatidylcholne by Fe^+2/H202 [3]: 0.3 mM | IC100 Required to prevent Oxidation of Soybean Phosphatidylcholne by Fe^+2/histidine-Fe^3+ [4]: 0.7 mM | % Surviving (ENDOTOXIN TREATED RATS; [8]): 17% | Survival Rate (ENDOTOXIN TREATED RATS; [8]): 2/12 | % Surviving (ENDOTOXIN TREATED RATS; [9]): 91% | Survival Rate (ENDOTOXIN TREATED RATS; [9]): 10/11 | IC50 [1]: 100 µM | protective effect in gerbil model (gerbils [2]): protective effect

CC(C)(C)[N+]([O-])=Cc1ccccc1 [PBN, α-phenyl N-tert-butyl nitrone]
CNS damage in gerbil model of stroke (gerbils [5]): less CNS damage | survival in animal models of circulatory shock [6]: significantly increase survival | myocardial dysfunction occurring after reperfusion (myocardial tissues): decreases the amount of myocardial dysfunction
